Assay results published in the NIST ThermoML archive (doi:10.1016/j.jct.2019.02.011).

Experiment: xn = mol fraction of the nth substance listed
Conditions: Liquid, Vibrating tube method

COC(=O)OC [dimethyl carbonate] + CO
mass density [kg/m3]
Conditions	100 kPa	5000 kPa	10000 kPa	15000 kPa	20000 kPa	25000 kPa	30000 kPa	35000 kPa	40000 kPa
288.15 K, x1 = 0.0253	810.84	815.18	819.54	823.48	827.53	831.19	834.68	838.22	841.6
288.15 K, x1 = 0.0503	824.62	828.97	833.29	837.23	841.29	844.9	848.4	851.95	855.33
288.15 K, x1 = 0.0745	837.24	841.59	845.92	849.88	853.93	857.55	861.06	864.56	867.95
288.15 K, x1 = 0.101	850.42	854.82	859.16	863.12	867.17	870.8	874.32	877.83	881.23
288.15 K, x1 = 0.1502	872.98	877.39	881.74	885.77	889.81	893.46	897.03	900.56	903.97
288.15 K, x1 = 0.2059	896.31	900.74	905.09	909.15	913.18	916.85	920.43	923.97	927.4
288.15 K, x1 = 0.25	913.24	917.63	921.99	926.05	930.08	933.76	937.36	940.91	944.34
288.15 K, x1 = 0.3004	930.93	935.33	939.69	943.77	947.8	951.49	955.1	958.61	962.05
288.15 K, x1 = 0.3426	944.7	949.1	953.42	957.51	961.53	965.18	968.8	972.32	975.72
288.15 K, x1 = 0.3984	961.49	965.91	970.23	974.34	978.3	981.96	985.59	989.12	992.53
288.15 K, x1 = 0.4514	976.13	980.55	984.83	988.95	992.91	996.58	1000.22	1003.71	1007.07
288.15 K, x1 = 0.5054	989.85	994.22	998.51	1002.64	1006.6	1010.28	1013.92	1017.42	1020.79
288.15 K, x1 = 0.5509	1000.55	1004.93	1009.17	1013.31	1017.27	1020.95	1024.6	1028.11	1031.49
288.15 K, x1 = 0.6002	1011.31	1015.7	1019.95	1024.09	1028.04	1031.69	1035.34	1038.85	1042.19
288.15 K, x1 = 0.6469	1020.74	1025.14	1029.39	1033.54	1037.49	1041.14	1044.75	1048.27	1051.61
288.15 K, x1 = 0.6993	1030.63	1035.03	1039.28	1043.44	1047.34	1051	1054.61	1058.08	1061.43
288.15 K, x1 = 0.7496	1039.53	1043.88	1048.14	1052.31	1056.2	1059.86	1063.48	1066.96	1070.31
288.15 K, x1 = 0.799	1047.69	1052.04	1056.25	1060.43	1064.32	1067.94	1071.56	1075.04	1078.4
288.15 K, x1 = 0.837	1053.71	1058.02	1062.23	1066.41	1070.3	1073.92	1077.55	1080.99	1084.34
288.15 K, x1 = 0.9093	1064.47	1068.78	1072.95	1077.14	1080.97	1084.6	1088.24	1091.68	1094.99
288.15 K, x1 = 0.9239	1066.51	1070.83	1074.99	1079.18	1083.02	1086.65	1090.28	1093.73	1097.04
288.15 K, x1 = 0.9575	1071.14	1075.46	1079.63	1083.83	1087.66	1091.29	1094.93	1098.38	1101.69
288.15 K, x1 = 0.9861	1074.98	1079.3	1083.47	1087.67	1091.5	1095.14	1098.78	1102.23	1105.55
288.15 K, x1 = 1	1076.83	1081.15	1085.32	1089.52	1093.35	1096.99	1100.63	1104.08	1107.4
293.15 K, x1 = 0.0253	805.71	810.46	814.95	–	–	–	–	–	–
293.15 K, x1 = 0.0503	819.38	824.13	828.58	–	–	–	–	–	–
293.15 K, x1 = 0.0745	831.94	836.69	841.14	–	–	–	–	–	–
293.15 K, x1 = 0.101	844.99	849.75	854.2	–	–	–	–	–	–
293.15 K, x1 = 0.1502	867.43	872.18	876.65	–	–	–	–	–	–
293.15 K, x1 = 0.2059	890.58	895.35	899.82	–	–	–	–	–	–
293.15 K, x1 = 0.25	907.39	912.16	–	–	–	–	–	–	–
293.15 K, x1 = 0.3004	925.01	929.73	–	–	–	–	–	–	–
293.15 K, x1 = 0.3426	938.66	943.38	–	–	–	–	–	–	–
293.15 K, x1 = 0.3984	955.38	960.11	–	–	–	–	–	–	–
293.15 K, x1 = 0.4514	969.9	974.63	–	–	–	–	–	–	–
293.15 K, x1 = 0.5054	983.54	988.23	–	–	–	–	–	–	–
293.15 K, x1 = 0.5509	994.14	998.83	–	–	–	–	–	–	–
293.15 K, x1 = 0.6002	1004.83	1009.48	–	–	–	–	–	–	–
293.15 K, x1 = 0.6469	1014.25	1018.9	–	–	–	–	–	–	–
293.15 K, x1 = 0.6993	1024.07	1028.72	–	–	–	–	–	–	–
293.15 K, x1 = 0.7496	1032.91	1037.51	–	–	–	–	–	–	–
293.15 K, x1 = 0.799	1041.06	1045.66	–	–	–	–	–	–	–
293.15 K, x1 = 0.837	1047.02	1051.63	–	–	–	–	–	–	–
293.15 K, x1 = 0.9093	1057.71	1062.27	–	–	–	–	–	–	–
293.15 K, x1 = 0.9239	1059.75	1064.31	–	–	–	–	–	–	–
293.15 K, x1 = 0.9575	1064.38	1068.94	–	–	–	–	–	–	–
293.15 K, x1 = 0.9861	1068.22	1072.78	–	–	–	–	–	–	–
293.15 K, x1 = 1	1070.06	1074.62	–	–	–	–	–	–	–
